# Source: US4891369A, “2β-Substituted-methylpenicillanic acid derivatives, and salts and esters thereof” (Taiho Pharmaceutical Company, Limited, priority 1986, dated 1990)
# Tests used:
# Experiment in all cases: MIC assay (Japan Society of Chemotherapy), antibacterial activity
# Type in all cases: cell-based
# [1] = tested on: Citrobacter 2046E; conditions: piperacillin used singly, 10^6 CFU/ml, 37° C., 20 hours, read-out: MIC piperacillin alone
# Procedure: (§1) The minimal inhibitory concentration (MIC) of piperacillin in the presence of 5 μg/ml of the compounds of the present invention against various bacteria were determined by the MIC assay method of Japan Society of Chemotherapy (Chemotherapy 29(1), pp. 76-79, 1981).
# (§2) The MIC value of the various compounds according to the invention and piperacillin, as used singly, were also determined. Each test strain was grown on Mueller Hinton Medium (Difco) and used for inoculation after dilution to concentration of 10^6 CFU/ml. The assay media (Mueller Hintoon Medium) containing piperacillin and the compound of the invention in a series of concentrations were inoculated with the test strain and incubated at 37° C. for 20 hours.
# (§3) The minimum concentration at which no more than 5 colonies were observed was determined. […] All the test strains used in the above assay were β-lactamase producers.
# [2] = tested on: P. aeruginosa PSE4; conditions: Pseudomonas aeruginosa, piperacillin used singly, 10^6 CFU/ml, 37° C., 20 hours, read-out: MIC piperacillin alone
# Procedure: as §1, §2, §3
# [3] = tested on: E. coli SHV1; conditions: Escherichia coli, SHV1, 20 h, read-out: MIC piperacillin alone
# Procedure: as §1, §2, §3
# [4] = tested on: P. aeruginosa PSE3; conditions: Pseudomonas aeruginosa, piperacillin used singly, 10^6 CFU/ml, 37° C., 20 hours, read-out: MIC piperacillin alone
# Procedure: as §1, §2, §3
# [5] = tested on: E. coli 1573E; conditions: Escherichia coli, piperacillin used singly, 10^6 CFU/ml, 37° C., 20 hours, read-out: MIC piperacillin alone
# Procedure: as §1, §2, §3
# [6] = tested on: S. aureus 54K; conditions: Staphylococcus aureus, 20 h, read-out: MIC piperacillin alone
# Procedure: as §1, §2, §3
# [7] = tested on: E. coli TEM1; conditions: Escherichia coli, TEM1, 20 h, read-out: MIC piperacillin alone
# Procedure: as §1, §2, §3
# [8] = tested on: P. mirabillis 60; conditions: piperacillin used singly; 10^6 CFU/ml; 37° C., 20 hours; read-out: MIC piperacillin alone
# Procedure: as §1, §2, §3
# [9] = tested on: Citrobacter 962L; conditions: piperacillin used singly, 10^6 CFU/ml, 37° C., 20 hours, read-out: MIC piperacillin alone
# Procedure: as §1, §2, §3
# [10] = tested on: E. coli OXA3; conditions: Escherichia coli, OXA3, 20 h, read-out: MIC piperacillin alone
# Procedure: as §1, §2, §3
# [11] = tested on: Serratia 200L; conditions: piperacillin used singly, 10^6 CFU/ml, 37° C., 20 hours, read-out: MIC piperacillin alone
# Procedure: as §1, §2, §3
# [12] = tested on: K. pneumoniae 101L; conditions: Klebsiella pneumoniae, piperacillin used singly, 10^6 CFU/ml, 37° C., 20 hours, read-out: MIC piperacillin alone
# Procedure: as §1, §2, §3
smiles,measurement,setting,value
CCN1CCN(C(=O)N[C@@H](C(=O)N[C@@H]2C(=O)N3[C@@H]2SC(C)(C)[C@@H]3C(=O)O)c2ccccc2)C(=O)C1=O [piperacillin],MIC,[1],25 µg/mL
same,MIC,[2],200 µg/mL
same,MIC,[3],25 µg/mL
same,MIC,[4],50 µg/mL
same,MIC,[5],6.25 µg/mL
same,MIC,[6],3.13 µg/mL
same,MIC,[7],100 µg/mL
same,MIC,[8],1.56 µg/mL
same,MIC,[9],100 µg/mL
same,MIC,[10],3.13 µg/mL
same,MIC,[11],25 µg/mL
same,MIC,[12],100 µg/mL
